Literature values as cited in US8003690B2, “Topical nanoparticulate spironolactone formulation” (Jagotec AG, priority 2002, dated 2011).

- solubility in water: 2.8 mg/100 ml
Compound: CC(=O)S[C@@H]1CC2=CC(=O)CC[C@]2(C)[C@H]2CC[C@@]3(C)[C@@H](CC[C@@]34CCC(=O)O4)[C@H]12 [Spironolactone]
